From ChEMBL document CHEMBL1201862, “PubChem BioAssay data set” (2004)
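Interpolation was linear, between the two tested concentrations surrounding the appropriate level; five concentrations were tested over 48 hours in 96-well plates. GI50 marks 50% less growth.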 The source made the active and inactive calls. Rule as the data show it: active = GI50 up to about 1.1 µM and inactive = higher.

Tests used:
Test in all cases: NCI tumour cell line growth inhibition, 48 h
U-251 = tested on: U-251
SK-MEL-28 = tested on: SK-MEL-28
SF-268 = tested on: SF-268
UACC-62 = tested on: UACC-62
UACC-257 = tested on: UACC-257
SNB-75 = tested on: SNB-75
MCF7 = tested on: MCF7
ACHN = tested on: ACHN
HL-60 = tested on: HL-60
HOP-62 = tested on: HOP-62
HT-29 = tested on: HT-29
786-0 = tested on: 786-0
HCC 2998 = tested on: HCC 2998
SNB-19 = tested on: SNB-19
SW-620 = tested on: SW-620
K562 = tested on: K562
M14 = tested on: M14
OVCAR-3 = tested on: OVCAR-3
SF-539 = tested on: SF-539

| SMILES | GI50 (U-251) | GI50 (SK-MEL-28) | GI50 (SF-268) | GI50 (UACC-62) | GI50 (UACC-257) | GI50 (SNB-75) | GI50 (MCF7) | GI50 (ACHN) | GI50 (HL-60) | GI50 (HOP-62) | GI50 (HT-29) | GI50 (786-0) | GI50 (HCC 2998) | GI50 (SNB-19) | GI50 (SW-620) | GI50 (K562) | GI50 (M14) | GI50 (OVCAR-3) | GI50 (SF-539) |
| --- | --- | --- | --- | --- | --- | --- | --- | --- | --- | --- | --- | --- | --- | --- | --- | --- | --- | --- | --- |
| Cc1ccc(N2C(=O)C=C(C3=C(O)C(=O)N(c4ccc(C)cc4)C3=O)C2=O)cc1 | > 100 µM (inactive) | > 100 µM (inactive) | > 100 µM (inactive) | > 100 µM (inactive) | > 100 µM (inactive) | 42.3 µM (inactive) | > 100 µM (inactive) | > 100 µM (inactive) | > 100 µM (inactive) | > 100 µM (inactive) | > 100 µM (inactive) | > 100 µM (inactive) | > 100 µM (inactive) | > 100 µM (inactive) | > 100 µM (inactive) | > 100 µM (inactive) | > 100 µM (inactive) | > 100 µM (inactive) | – |
| CCCCCC(/C=N/NC(N)=S)C(O)(C(F)(F)F)C(F)(F)F (centres undefined) | > 10 µM (inactive) | > 10 µM (inactive) | > 10 µM (inactive) | > 10 µM (inactive) | > 10 µM (inactive) | > 10 µM (inactive) | > 10 µM (inactive) | > 10 µM (inactive) | – | > 10 µM (inactive) | > 10 µM (inactive) | > 10 µM (inactive) | > 10 µM (inactive) | > 10 µM (inactive) | > 10 µM (inactive) | > 10 µM (inactive) | > 10 µM (inactive) | > 10 µM (inactive) | > 10 µM (inactive) |
| CC[C@@H]1CC[C@@H]2[C@H](CC[C@]3(C)[C@@H](OS(=O)(=O)c4ccc(C)cc4)CC[C@@H]23)[C@H]1COS(=O)(=O)c1ccc(C)cc1 | > 100 µM (inactive) | > 100 µM (inactive) | > 100 µM (inactive) | – | > 100 µM (inactive) | – | > 100 µM (inactive) | > 100 µM (inactive) | > 100 µM (inactive) | – | > 100 µM (inactive) | > 100 µM (inactive) | > 100 µM (inactive) | > 100 µM (inactive) | > 100 µM (inactive) | > 100 µM (inactive) | > 100 µM (inactive) | – | > 100 µM (inactive) |
| COc1cc(S(=O)(=O)Nc2nc(-c3ccc(N)cc3)cs2)ccc1Cl | 63 µM (inactive) | 69.3 µM (inactive) | 75.7 µM (inactive) | 28.4 µM (inactive) | 57.3 µM (inactive) | > 100 µM (inactive) | 36.8 µM (inactive) | 66.4 µM (inactive) | 45.7 µM (inactive) | > 100 µM (inactive) | 54 µM (inactive) | > 100 µM (inactive) | – | 91.4 µM (inactive) | > 100 µM (inactive) | 58.2 µM (inactive) | 59.8 µM (inactive) | 54.3 µM (inactive) | > 100 µM (inactive) |
| Cn1c(=O)cc(NNc2ccc(Br)cc2)[nH]c1=O | 3.05 µM (inactive) | 17.3 µM (inactive) | – | – | 15.3 µM (inactive) | – | 10.4 µM (inactive) | 14 µM (inactive) | 2.99 µM (inactive) | 12.8 µM (inactive) | 3.53 µM (inactive) | 9.59 µM (inactive) | 4.59 µM (inactive) | 13.6 µM (inactive) | 4.5 µM (inactive) | 1.17 µM (inactive) | 15.5 µM (inactive) | 3.99 µM (inactive) | 3.31 µM (inactive) |
| CC(C)(O)CCC(O)C(C)(O)C1CCC2(O)C3=CC(=O)C4(O)CC(O)C(O)CC4(C)C3CCC12C.CC(C)(O)CCC(O)C(C)(O)C1CCC2(O)C3=CC(=O)C4CC(O)C(O)CC4(C)C3CCC12C (centres undefined) | > 100 µM (inactive) | > 100 µM (inactive) | > 100 µM (inactive) | > 100 µM (inactive) | > 100 µM (inactive) | > 100 µM (inactive) | 86.7 µM (inactive) | > 100 µM (inactive) | > 100 µM (inactive) | > 100 µM (inactive) | > 100 µM (inactive) | > 100 µM (inactive) | – | > 100 µM (inactive) | > 100 µM (inactive) | > 100 µM (inactive) | > 100 µM (inactive) | > 100 µM (inactive) | > 100 µM (inactive) |
| O=C(NCc1ccccc1)c1nn[nH]c1O | > 100 µM (inactive) | > 100 µM (inactive) | > 100 µM (inactive) | > 100 µM (inactive) | > 100 µM (inactive) | > 100 µM (inactive) | > 100 µM (inactive) | > 100 µM (inactive) | > 100 µM (inactive) | > 100 µM (inactive) | > 100 µM (inactive) | > 100 µM (inactive) | > 100 µM (inactive) | > 100 µM (inactive) | > 100 µM (inactive) | > 100 µM (inactive) | > 100 µM (inactive) | > 100 µM (inactive) | – |
| O=C(O)CCNc1[nH]cnc2ncnc1-2 | > 100 µM (inactive) | > 100 µM (inactive) | > 100 µM (inactive) | > 100 µM (inactive) | > 100 µM (inactive) | > 100 µM (inactive) | > 100 µM (inactive) | > 100 µM (inactive) | > 100 µM (inactive) | > 100 µM (inactive) | > 100 µM (inactive) | > 100 µM (inactive) | > 100 µM (inactive) | > 100 µM (inactive) | > 100 µM (inactive) | > 100 µM (inactive) | > 100 µM (inactive) | 0.621 µM (active) | – |
